# Source: EP3318253B1, “COMPOSITIONS COMPRISING WNT INHIBITORS FOR TREATING CANCER” (Schmidt-Wolf, Ingo, priority 2010, dated 2012)
# Where two headings read alike, the source gives them in different places.
# How the values were obtained:
# [1] = test system: OPM-2, U266 and RPMI 8226 cells; experiment: Cell viability by DiOC6 staining in myeloma cell lines (mean IC50, combinations); assay type: cell-based, human; conditions: for IC50: Homo sapiens, mean of the IC50 results in OPM-2, U266 and RPMI 8226 cells; for viability of myeloma cell lines in vitro: result in words
# Experimental: A mean IC50 value in myeloma cells was determined using the mean of the IC50 results determined in OPM-2, U266 and RPMI 8226 cells.
# (§1) • Figure 1. […] Data are shown as mean ± SD. • Figure 2. […] Data are shown as mean ± SD. • Figure 3. […] (A) Flow cytometric results. […] Finally, ECL reagent was utilized for detection. • Figure 4C. […] Finally, ECL reagent was utilized for detection. • Figure 5. Effect of EA on viability of myeloma primary cells. […] Results represent data from two separate experiments. Data are shown as mean. • Figure 6. […] (A) Tumor growth and (B) overall survival were measured. Six animals were assayed per group.
# Experiments were performed as reported recently. […]
# SU-DHL 4 = experiment: Cell viability by DiOC6 staining, flow cytometry; assay type: cell-based; conditions: Homo sapiens, 72 h; SU-DHL 4; 1x10^5 cells cultured three days, various concentrations
# Experimental: (§2) Experiments were performed as reported recently.
# (§3) PBL derived from healthy individuals were used as controls. […] ND, not done.
# RPMI 8226 = experiment: Cell viability by DiOC6 staining, flow cytometry; assay type: cell-based; conditions: Homo sapiens, 72 h, 1x10^5 cells cultured three days, various concentrations
# Experimental: as §2, §3
# Raji = experiment: Cell viability by DiOC6 staining, flow cytometry; assay type: cell-based; conditions: Homo sapiens, 72 h, 1x10^5 cells cultured three days, various concentrations
# Experimental: as §2, §3
# U266 = experiment: Cell viability by DiOC6 staining, flow cytometry; assay type: cell-based; conditions: Homo sapiens, U-266, 72 h, 1x10^5 cells cultured three days, various concentrations
# Experimental: as §2, §3
# OCI-Ly8 LAM53 = experiment: Cell viability by DiOC6 staining, flow cytometry; assay type: cell-based; conditions: Homo sapiens, 72 h; OCI-Ly8 LAM53; 1x10^5 cells cultured three days, various concentrations
# Experimental: as §2, §3
# PBMC = experiment: Cell viability by DiOC6 staining, flow cytometry (normal control cells); assay type: cell-based, human; conditions: for IC50: Homo sapiens, 72 h, PBMC from healthy individuals, three days; for effect on normal PBMC and PBL: result in words
# Experimental: PBMCs were isolated from blood of healthy donors by Ficoll-Hypaque density gradient centrifugation. Blood from buffy coats was mixed 1:2 with PBS/1% BSA (both PAA, Cölbe, Germany) and used for a ficoll gradient (LymphoPrep, PAA, Cölbe, Germany). After the centrifugation at 800 g for 30 minutes, the leukocyte layer was removed and transferred to new tubes. Subsequently, these cells were washed 3 times with PBS/1%BSA and re-suspended in fresh medium, consisting of RPMI medium (PAA, Cölbe, Germany) with 10% fetal calf serum (Invitrogen, Karlsruhe, Germany), 2.5% hepes buffer solution (PAA, Cölbe, Germany), and 1% penicillin/streptomycin (PAA, Cölbe, Germany).
# as §2
# PBL [2] = experiment: as above; conditions: for IC50: Homo sapiens, PBL, 72 h; for effect on normal PBL: result in words
# Experimental: (§4) Peripheral blood mononuclear cells (PBMC) and PBL were isolated from blood samples of healthy volunteers by Ficoll density gradient centrifugation (Lymphoprep, Nycomed, Oslo, Norway).
# (§5) 1x10^5 Cells were cultured in 3 ml Medium in 6-well plates. […] The apoptosis assay was performed with 3'3-dihexyloxacarbocyanine iodide (DiOC6) detecting mitochondrial membrane potential in viable cells, and propidium iodide (PI) which binds to DNA in necrotic cells, measured by a fluorescence-activated cell sorter (FACS).
# (§6) For FACS analysis, 500µl staining solution containing 80 nM DiOC6 in FACS buffer, consisting of deficient RPMI-medium with 0.5% bovine serum albumin (BSA), was mixed with equal volumes of the cell sample in a glass tube and incubated at 37°C for 15 min. After a washing step with PBS/BSA 1% the cells were re-suspended in 500µl PBS/BSA 1%. After addition of 5µl PI-solution (100µg/ml) the cells were analyzed by FACS. Using this assay, viable cells reveal high fluorescence intensity for DiOC6 and a low expression for PI. In contrary, apoptotic cells show a low expression for DiOC6 and also a low expression for PI (2). Finally, necrotic cells show a low expression for DiOC6 and a high expression for PI.
# (§7) PBMC and PBL derived from healthy individuals were used as normal controls. 1x10^5 cells were cultured with each compound using various concentrations for three days. Then cell viability was measured by DIOC6 staining by flow cytometry. Results represent data from two to four separate experiments each.
# (§8) PBMC and PBL derived from healthy individuals were used as normal controls. 1x10^5 cells were cultured with each compound using various concentrations for three days. Then cell viability was measured by DIOC6 staining by flow cytometry. Results represent data from 2 to 4 separate experiments each.
# (§9) 1x10^5 Cells were cultured in 3 ml Medium in 6-well plates. […] The apoptosis assay was performed with 3' 3-dihexyloxacarbocyanine iodide (DiOC6) detecting mitochondrial membrane potential in viable cells, and propidium iodide (PI) which binds to DNA in necrotic cells, measured by a fluorescence-activated cell sorter (FACS).
# (§10) PBL derived from healthy individuals were used as controls. 1x10^5 cells were cultured with each compound using various concentrations for three days. Then cell viability was measured by DIOC6 staining by flow cytometry and IC 50 rates were determined. Results represent data from 2 to 4 separate experiments each.
# (§11) PBMC and PBL derived from healthy individuals were used as controls. 1x10^5 cells were cultured with each compound using various concentrations for three days.
# OPM-2 myeloma cells = experiment: Cell viability by DiOC6 staining, flow cytometry; assay type: cell-based, human; conditions: for IC50: Homo sapiens, 72 h, OPM-2, 1x10^5 cells cultured three days, various concentrations
# Experimental: as §2, §3
# lymphoma cell lines = experiment: Cell viability by DiOC6 staining in lymphoma cell lines; assay type: cell-based, human; conditions: result in words
# Experimental: as §2, §3
# PBL [3] = test system: PBL
# Experimental: as §4, §5, §6, §7, §8, §9, §10, §11
# Daudi and Raji cells = experiment: Cell viability in combination experiments, lymphoma cells; assay type: cell-based, human; conditions: single drug or combination; data not shown
# MPC11 myeloma cells = conditions: gavage, daily dosage 450 µg per animal; for overall survival time: compared to the control group; for animals in which solid tumor nodules formed: treatment group of 6
# Experimental: All animal experiments were done at least in duplicate with groups of 6 BALB/c mice (Charles River, Sulzfeld, Germany). 5x10^5 MCP11 murine myeloma cells were injected per mouse subcutaneously into Balb/c mice. […] Overall survival and tumor growth were measured. Tumor volume was calculated as follows: volume = length x width^2 x 0,52. Animals were killed when tumor volume reached 2000 mm^3.
# • Figure 1. […] 1x10^5 cells were cultured with different compounds for three days. The concentration of thalidomide was U266 160µM for U266, RPMI 20µM for RPMI, and OPM 40µM for OPM cells. Then cell viability was measured by DIOC6 staining in flow cytometry. Results represent data from three, two and five separate experiments, respectively. Separate U266 n=3, RPMI n=2, OPM n=5 experiments. Data are shown as mean ± SD. • Figure 2. […] 1x10^5 OPM cells were cultured with the different compounds for three days. The concentration of lenalidomide was 12µM for OPM and 80µM for RPMI cells. Then cell viability was measured by DIOC6 staining in flow cytometry. Results represent data from eight and five OPM n=8, RPMI n=5 separate experiments, respectively. Data are shown as mean ± SD. • Figure 3. […] (A) Flow cytometric results. […] Western Blot analysis for the detection of β-catenin in myeloma cell lines under normal conditions. The myeloma cell lines RPMI 8226, KMS-18 and U266 were analyzed according to their β-catenin expression. • Figure 4B. […] As primary antibodies purified mouse anti-β-catenin and β-actin were used at a dilution of 1:1000 and as secondary antibody served goat anti-mouse IgG-HRP at a dilution of 1:5000. Finally, ECL reagent was utilized for detection. • Figure 4C. […] As primary antibodies Purified mouse anti-β-catenin and β-actin were used at a dilution of 1:1000 and as secondary antibody served goat anti-mouse IgG-HRP at a dilution of 1:5000. Finally, ECL reagent was utilized for detection. • Figure 5. […] Results represent data from two separate experiments. Data are shown as mean. • Figure 6. […] BALB/c mice were injected with 5x10^5 MPC11 myeloma cells subcutaneously. (A) Tumor growth and (B) overall survival were measured. Six animals were assayed per group.
# All animal experiments were done at least in duplicate with groups of 6 BALB/c mice (Charles River, Sulzfeld, Germany). 5x10^5 MCP11 murine myeloma cells were injected per mouse subcutaneously into Balb/c mice. Mice were treated orally with 450µg/day CIC and 750 µg lenalidomide/day, respectively. Overall survival and tumor growth were measured. Tumor volume was calculated as follows: volume = length x width^2 x 0,52. Animals were killed when tumor volume reached 2000 mm^3.
# • Figure 7. […] 1x10^5 cells were cultured with different compounds for three days. The concentration of thalidomide was U266 160µM for U266, RPMI 20µM for RPMI, and OPM 40µM for OPM cells. Then cell viability was measured by DIOC6 staining in flow cytometry. Results represent data from three, two and five separate experiments, respectively. Separate U266 n=3, RPMI n=2, OPM n=5 experiments. Data are shown as mean ± SD. • Figure 8. […] 1x10^5 OPM cells were cultured with the different compounds for three days. The concentration of lenalidomide was 12µM for OPM and 80µM for RPMI cells. Then cell viability was measured by DIOC6 staining in flow cytometry. Results represent data from eight and five OPM n=8, RPMI n=5 separate experiments, respectively. Data are shown as mean ± SD. • Figure 9. […] (A) Flow cytometric results. (B) We analyzed the effect of CIC on the Wnt/beta catenin pathway by Western blot. • Figure 10A. Western Blot analysis for the detection of β-catenin in myeloma cell lines under normal conditions. The myeloma cell lines RPMI 8226, KMS-18 and U266 were analyzed according to their β-catenin expression. • Figure 10B.
# MPC 11 = experiment: Cell viability by DiOC6 staining, flow cytometry; assay type: cell-based; conditions: Mus musculus, 72 h; MPC 11 (murine); three days
# Experimental: Then cell viability was measured by DIOC6 staining in flow cytometry. […] Then cell viability was measured by DIOC6 staining in flow cytometry. Results represent data from two separate experiments. […] Six animals were used in each group. […] Six animals were used in each group.
# [4] = test system: primary myeloma cells derived from bone marrow from patients with multiple myeloma; experiment: Viability of myeloma primary cells from bone marrow; assay type: cell-based, human; conditions: incubated three days; preliminary data
# Experimental: Bone marrow samples from patients with myeloma were taken after informed consent, single cell suspensions generated and cells ficolled. Cells were incubated with or without EA for three days and measured for viability.
# as §1
# Bone marrow samples from patients with myeloma were taken after informed consent, single cell suspensions generated and cells ficolled. Cells were incubated with or without CIC for three days and measured for viability.
# Bone marrow samples from patients with myeloma were taken after informed consent, single cell suspensions generated and cells ficolled. Cells were incubated with or without GF for three days and measured for viability.
# KMS18 = experiment: Cell viability by DiOC6 staining, flow cytometry; assay type: cell-based; conditions: Homo sapiens, 72 h, three days
# Text: as §3
IC50 (OPM-2 myeloma cells),Compound,IC50 [1],IC50 (SU-DHL 4),IC50 (RPMI 8226),IC50 (Raji),IC50 (U266),IC50 (OCI-Ly8 LAM53),IC50 (PBMC),effect on normal PBMC and PBL (PBMC),IC50 (PBL [2]),effect on normal PBL (PBL [2]),viability of lymphoma cell lines in vitro (lymphoma cell lines),viability of myeloma cell lines in vitro [1],overall survival time (MPC11 myeloma cells),animals in which solid tumor nodules formed (MPC11 myeloma cells),IC50 (MPC 11),growth of primary myeloma cells [4],also measured
13 µM,"Nc1cccc2c1CN(C1CCC(=O)NC1=O)C2=O (racemic) [lenalidomide, (RS)-3-(4-amino-1-oxo-3H-isoindol-2-yl)piperidine-2,6-dione]",16.3 µM,> 1000 µM,2 µM,> 1000 µM,34 µM,> 1000 µM,> 400 µM,marginal,> 200 µM,marginal,no effect,–,–,–,–,–,"viability of OPM-2 and RPMI-8226 myeloma cells ([1]; lenalidomide 12µM for OPM, 80µM for RPMI, three days): significant decrease in viability"
53 µM,"O=C1CCC(N2C(=O)c3ccccc3C2=O)C(=O)N1 (racemic) [thalidomide, (RS)-2-(2,6-dioxopiperidin-3-yl)-1H-isoindole-1,3(2H)-dione]",> 251 µM,> 400 µM,> 400 µM,> 400 µM,300 µM,> 400 µM,> 400 µM,no effect,> 400 µM,–,no effect,–,–,–,–,–,"viability of OPM-2, U-266 and RPMI-8226 myeloma cells ([1]; thalidomide 160µM for U266, 20µM for RPMI, 40µM for OPM, three days): significant decrease in viability; effect on normal PBL (PBL [3]): no effect"
–,CC(C)C[C@H](NC(=O)[C@H](Cc1ccccc1)NC(=O)c1cnccn1)B(O)O [bortezomib],–,–,–,–,–,–,–,–,–,–,–,–,–,–,–,–,"viability of OPM-2 myeloma cells (OPM-2 myeloma cells; bortezomib alone or in combination, data not shown): significant decrease in viability"
–,COc1cccc2c1C(=O)c1c(O)c3c(c(O)c1C2=O)C[C@@](O)(C(=O)CO)C[C@@H]3O[C@H]1C[C@H](N)[C@H](O)[C@H](C)O1 [doxorubicin],–,–,–,–,–,–,–,–,–,–,–,–,–,–,–,–,viability of Daudi and Raji cells (Daudi and Raji cells): significant decrease in viability
–,"COC1=CC(=O)C[C@@H](C)[C@]12Oc1c(Cl)c(OC)cc(OC)c1C2=O [griseofulvin, (2S,6'R)-7-chloro-2',4,6-trimethoxy-6'-methyl-3H,4'H-spiro [1-benzofuran-2,1'-cyclohex[2]ene]-3,4'-dione]",22 µM,22 µM,26 µM,33 µM,18 µM,30 µM,180 µM,–,80 µM,–,significantly (p<0.05) decreased,significantly decreased the viability,significantly (p<0.05) longer,5 of 6,41 µM,inhibits the growth,–

Compound,IC50 (OPM-2 myeloma cells),IC50 [1],IC50 (SU-DHL 4),IC50 (RPMI 8226),IC50 (Raji),IC50 (U266),IC50 (OCI-Ly8 LAM53),IC50 (PBMC),effect on normal PBMC and PBL (PBMC),IC50 (PBL [2]),effect on normal PBL (PBL [2]),viability of lymphoma cell lines in vitro (lymphoma cell lines),viability of myeloma cell lines in vitro [1],overall survival time (MPC11 myeloma cells),animals in which solid tumor nodules formed (MPC11 myeloma cells),IC50 (MPC 11),growth of primary myeloma cells [4],also measured
Cc1cc(CC(C)CC(C)(C)C)n(O)c(=O)c1 (stereo not shown) [piroctone olamine],0.7 µM,0.6 µM,0.7 µM,0.6 µM,0.6 µM,0.6 µM,0.6 µM,–,–,18 µM,marginal,significantly (p<0.05) decreased,significantly decreased the viability,significantly (p<0.05) longer,5 of 6,0.8 µM,inhibits the growth,IC50 (KMS18): 0.6 µM
